Laboratory results: patent publication US20250313563A1, “GLYCOGEN SYNTHASE KINASE 3 INHIBITORS AND USES THEREOF” (The Broad Institute, Inc., priority 2022, published 2025)
Where two headings read alike, the source gives them in different places.

What was measured:
GSK3α = GSK3α (Homo sapiens (Human), UniProt P49840); assay: pThr231 tau phosphorylation plate-based assay in HEK-huTau cells transfected with GSK3α; type: cell-based; conditions: HEK-huTau cells transfected with human GSK3α; 10-point dose response, 2 hours; read-out: GSK3α IC50 (inhibition of pThr231)
GSK3α, sequence (P49840 whole entry): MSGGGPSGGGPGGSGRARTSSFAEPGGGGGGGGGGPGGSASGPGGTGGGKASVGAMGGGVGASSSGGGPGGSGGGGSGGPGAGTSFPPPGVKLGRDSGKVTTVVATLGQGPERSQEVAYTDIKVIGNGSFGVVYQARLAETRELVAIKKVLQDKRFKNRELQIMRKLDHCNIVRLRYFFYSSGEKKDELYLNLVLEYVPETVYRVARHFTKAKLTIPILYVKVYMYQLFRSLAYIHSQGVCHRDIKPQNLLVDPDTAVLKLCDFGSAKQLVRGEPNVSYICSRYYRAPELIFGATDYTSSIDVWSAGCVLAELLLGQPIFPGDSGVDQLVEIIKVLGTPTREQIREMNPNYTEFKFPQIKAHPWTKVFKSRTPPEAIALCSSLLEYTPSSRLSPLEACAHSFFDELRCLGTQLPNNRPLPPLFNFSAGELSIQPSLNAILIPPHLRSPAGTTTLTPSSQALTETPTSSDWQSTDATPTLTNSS
Method: HEK293 or SH-SY5Y cells were obtained from American Type Culture Collection (ATCC, Manassas, VA) and cultured in Dulbecco's modified Eagle's medium (DMEM) supplemented with 10% fetal bovine serum (FBS), 10 units/ml penicillin, and 10 μg/ml streptomycin (all reagents were purchased from Gibco, Waltham, MA). Cell cultures were maintained in a humidified 5% (v/v) CO2/air environment at 37° C. When the cells reached 50-80% confluence, they were transfected with a complex consisting of a 3:1 ratio of FuGENE 6 Transfection Reagent (Promega, Madison, WI) and plasmid DNA. Plasmid DNA was balanced out across reactions using an empty plasmid so that the same amount of DNA was added per well. This transfection complex was prepared following the manufacturers protocol and added directly to the cell media for 24 or 48 hours prior to lysis.
293T cells stably expressing human 2N4R Tau were transfected with appropriate cDNA plasmids. 24 hours following transfection cells were treated with compound in a 10-point dose-response (from 1000× stocks of compound) and lysates harvested 2 hours later with cell extraction buffer (Life Technologies Cat #BN0001) or RIPA Buffer with Halt protease/phosphatase inhibitors added.
For pThr231 assay: Lysate was diluted 1:100 in assay buffer and Total Tau and pTau T231 was assessed by plate-based ELISA as per manufacturer instructions (MSD Cat #K15121D-1). Total fluorescence was measured using an Envison plate reader.
To test the potency and isoform selectivity of GSK3 small molecule inhibitors, HEK-huTau cells were transfected with plasmids containing either human GSK3α or GSK3β. Twenty-four hours after transfection, compounds were added at a 10-point dose response curve (at a range of 30 μM-3 nM) for a total of 2 hours, and cell lysates were probed for total tau and pThr231 using a plate-based assay.

[1] = molecular target: GSK3α (GST-full length GSK3α) (Homo sapiens (Human), UniProt P49840); assay: GSK3α TR-FRET kinase assay; type: biochemical; conditions: geometric mean, GMean
GSK3α (GST-full length GSK3α), sequence (P49840 whole entry): as above
Summary of the method: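 Readout: anti-pSer641 Tb antibody/streptavidin-d2 signal after 60 min, expressed as 665/615 ratio and fitted versus log concentration for IC50. Enzyme: 1 nM GST-GSK3 (α or β), compound-preincubated 30 min. Conditions: pH 7.5 Tris buffer with MgCl2, DTT, BSA; ATP at 4 or 2 μM, or 1 mM; 100 min.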

NanoLuc-GSK3β = NanoLuc-GSK3β (Homo sapiens (Human), UniProt P49841); assay: NanoBRET residence time, GSK3β; type: cell-based; conditions: inhibitor at 10× IC50, BRET every 5 min for 3 hours
NanoLuc-GSK3β, sequence (P49841 whole entry): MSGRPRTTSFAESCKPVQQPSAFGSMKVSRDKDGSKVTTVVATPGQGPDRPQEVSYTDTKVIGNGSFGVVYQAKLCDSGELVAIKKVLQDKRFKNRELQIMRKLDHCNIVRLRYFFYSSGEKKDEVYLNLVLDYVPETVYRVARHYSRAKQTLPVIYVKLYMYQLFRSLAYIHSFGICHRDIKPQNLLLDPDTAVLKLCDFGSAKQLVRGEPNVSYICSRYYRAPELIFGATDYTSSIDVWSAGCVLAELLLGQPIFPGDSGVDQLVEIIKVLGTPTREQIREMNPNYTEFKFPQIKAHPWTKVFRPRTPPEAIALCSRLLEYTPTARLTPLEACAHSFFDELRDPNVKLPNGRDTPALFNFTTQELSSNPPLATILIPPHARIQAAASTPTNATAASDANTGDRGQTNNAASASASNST

[2] = Drug exposure in blood and brain, free drug concentration in the brain; type: in vivo, Sprague Dawley rats; conditions: P10 rats
Method: Sprague Dawley rats were bred in-house and litters were injected with compound, I.P. at post-natal day 10. Rats were then euthanized at indicated times following drug administration. For tissue collection, animals were euthanized via decapitation, brains were quickly removed, and bisected sagitally. The right cortex, was isolated, placed into 2 mL microtubes along with a single 5 mm stainless steel bead and the left cortex were placed into 2 mL Lysing Matrix A tubes (MP Biomedicals, Santa Ana, CA), Both tubes were immediately snap frozen in liquid nitrogen.
Aqueous buffered homogenate was created from cortical tissue via bead beater, at a consistent homogenization factor, which was normalized by tissue weight. Total drug in brain was determined by measuring total exposure in brain in ng/ml (cortical tissue) via LC-MS/MS. This was then corrected to free concentration via an experimentally derived fu,br using rapid equilibrium dialysis with brain homogenate.
To determine drug exposure, blood and cortical tissue were analyzed at each time point following dosing.

CCC1(c2cccc(C(F)(F)F)c2)C2=C(Nc3n[nH]cc31)C(F)C(C)(C)CC2=O (single isomer, unassigned) [Compound 837646, 4-ethyl-8-fluoro-7,7-dimethyl-4-(3-(trifluoromethyl)phenyl)-2,4,6,7,8,9-hexahydro-5H-pyrazolo[3,4-b]quinolin-5-one]
IC50 (GSK3α): 150 nM | IC50 ([1]; 1 nM GSK3α, 4 μM ATP, 30 minute preincubation, read-out: GSK3-A TR-FRET BIOCHEMICAL (TR-FRET), IC50): ≤ 100 nM | IC50 ([1]; GSK3-A (TR-FRET 1 mM ATP), IC50, 1 mM ATP): ≤ 100 nM | residence time at GSK3β (NanoLuc-GSK3β): no difference in the residence time | steady Cmax extending post injection [2]: 6 h
